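These data come from cells grown in 96-well plates and exposed to compound for 48 hours at five concentrations. The concentration for 50% growth inhibition is given as GI50.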 Calls of active or inactive are those of the source. Rule as the data show it: active = GI50 up to about 1.1 µM and inactive = higher.
What was measured:
Assay in all cases: inhibition of tumour cell growth, NCI panel, 48 h
Malme-3M = tested on: Malme-3M
LXFL 529 = tested on: LXFL 529
UACC-257 = tested on: UACC-257
NCI-H522 = tested on: NCI-H522
UO-31 = tested on: UO-31
NCI-H460 = tested on: NCI-H460
CAKI-1 = tested on: CAKI-1
SK-MEL-2 = tested on: SK-MEL-2
CCRF-CEM = tested on: CCRF-CEM
OVCAR-8 = tested on: OVCAR-8
786-0 = tested on: 786-0
HCT-15 = tested on: HCT-15
DMS-114 = tested on: DMS-114
DMS-273 = tested on: DMS-273
RXF 393 = tested on: RXF 393
EKVX = tested on: EKVX
HOP-18 = tested on: HOP-18
SF-295 = tested on: SF-295
MOLT-4 = tested on: MOLT-4
DLD-1 = tested on: DLD-1
U-251 = tested on: U-251
HOP-62 = tested on: HOP-62
HOP-92 = tested on: HOP-92
HCT-116 = tested on: HCT-116
SK-MEL-28 = tested on: SK-MEL-28
SN12C = tested on: SN12C
SNB-78 = tested on: SNB-78
OVCAR-5 = tested on: OVCAR-5
SK-MEL-5 = tested on: SK-MEL-5
SF-268 = tested on: SF-268
SW-620 = tested on: SW-620
K562 = tested on: K562
HL-60 = tested on: HL-60
M14 = tested on: M14
KM12 = tested on: KM12
OVCAR-3 = tested on: OVCAR-3
KM-20L2 = tested on: KM-20L2
M19-MEL = tested on: M19-MEL
RPMI-8226 = tested on: RPMI-8226
SNB-75 = tested on: SNB-75
OVCAR-4 = tested on: OVCAR-4
IGROV-1 = tested on: IGROV-1
UACC-62 = tested on: UACC-62
XF498 = tested on: XF498
NCI-H226 = tested on: NCI-H226
SNB-19 = tested on: SNB-19
NCI-H23 = tested on: NCI-H23
HCC 2998 = tested on: HCC 2998
ACHN = tested on: ACHN
SR = tested on: SR
LOX IMVI = tested on: LOX IMVI
A498 = tested on: A498
A549 = tested on: A549
HT-29 = tested on: HT-29
TK-10 = tested on: TK-10
SF-539 = tested on: SF-539
SK-OV-3 = tested on: SK-OV-3
COLO 205 = tested on: COLO 205
RXF 631 = tested on: RXF 631

For NC(=O)N/N=C(\Cc1nc2ccc(C(=O)c3ccccc3)cc2nc1O)C(=O)Nc1ccc(Br)cc1, the GI50 (Malme-3M) was > 100 µM (inactive), the GI50 (LXFL 529) was > 100 µM (inactive) and the GI50 (UACC-257) was > 100 µM (inactive). For the same compound, the GI50 (NCI-H522) was > 100 µM (inactive), the GI50 (UO-31) was > 100 µM (inactive) and the GI50 (NCI-H460) was > 100 µM (inactive). The GI50 (CAKI-1) was > 100 µM (inactive), the GI50 (SK-MEL-2) was > 100 µM (inactive) and the GI50 (CCRF-CEM) was > 100 µM (inactive). For the same compound, the GI50 (OVCAR-8) was > 100 µM (inactive), the GI50 (786-0) was > 100 µM (inactive) and the GI50 (HCT-15) was greater than 100 µM. For the same compound, the GI50 (DMS-114) was > 100 µM (inactive), the GI50 (DMS-273) was > 100 µM (inactive) and the GI50 (RXF 393) was > 100 µM (inactive). For the same compound, the GI50 (EKVX) was > 100 µM (inactive), the GI50 (HOP-18) was > 100 µM (inactive) and the GI50 (SF-295) was > 100 µM (inactive). The GI50 (MOLT-4) was > 100 µM (inactive), the GI50 (DLD-1) was > 100 µM (inactive) and the GI50 (U-251) was > 100 µM (inactive). For the same compound, the GI50 (HOP-62) was > 100 µM (inactive), the GI50 (HOP-92) was > 100 µM (inactive) and the GI50 (HCT-116) was > 100 µM (inactive). The GI50 (SK-MEL-28) was > 100 µM (inactive), the GI50 (SN12C) was > 100 µM (inactive) and the GI50 (SNB-78) was > 100 µM (inactive). For the same compound, the GI50 (OVCAR-5) was > 100 µM (inactive), the GI50 (SK-MEL-5) was > 100 µM (inactive) and the GI50 (SF-268) was > 100 µM (inactive). For the same compound, the GI50 (SW-620) was > 100 µM (inactive), the GI50 (K562) was > 100 µM (inactive) and the GI50 (HL-60) was > 100 µM (inactive). For the same compound, the GI50 (M14) was > 100 µM (inactive), the GI50 (KM12) was > 100 µM (inactive) and the GI50 (OVCAR-3) was > 100 µM (inactive). The GI50 (KM-20L2) was > 100 µM (inactive), the GI50 (M19-MEL) was > 100 µM (inactive) and the GI50 (RPMI-8226) was > 100 µM (inactive). For the same compound, the GI50 (SNB-75) was > 100 µM (inactive), the GI50 (OVCAR-4) was > 100 µM (inactive) and the GI50 (IGROV-1) was > 100 µM (inactive). The GI50 (UACC-62) was > 100 µM (inactive), the GI50 (XF498) was > 100 µM (inactive) and the GI50 (NCI-H226) was 86.3 µM (inactive). The GI50 (SNB-19) was > 100 µM (inactive), the GI50 (NCI-H23) was > 100 µM (inactive) and the GI50 (HCC 2998) was > 100 µM (inactive). For the same compound, the GI50 (ACHN) was > 100 µM (inactive), the GI50 (SR) was > 100 µM (inactive) and the GI50 (LOX IMVI) was > 100 µM (inactive). For the same compound, the GI50 (A498) was > 100 µM (inactive), the GI50 (A549) was > 100 µM (inactive) and the GI50 (HT-29) was > 100 µM (inactive). The GI50 (TK-10) was > 100 µM (inactive), the GI50 (SF-539) was > 100 µM (inactive) and the GI50 (SK-OV-3) was > 100 µM (inactive).
For O=C1C(Cl)=C(Cl)C(=O)N1c1ccccc1Cl, the GI50 (Malme-3M) was > 52.5 µM (inactive), the GI50 (LXFL 529) was > 53 µM (inactive) and the GI50 (UACC-257) was > 100 µM (inactive). For the same compound, the GI50 (NCI-H522) was 8.24 µM (inactive), the GI50 (UO-31) was > 100 µM (inactive) and the GI50 (NCI-H460) was > 100 µM (inactive). For the same compound, the GI50 (CAKI-1) was > 44.2 µM (inactive), the GI50 (SK-MEL-2) was > 100 µM (inactive) and the GI50 (CCRF-CEM) was 11.9 µM (inactive). The GI50 (OVCAR-8) was > 100 µM (inactive), the GI50 (786-0) was > 79.3 µM (inactive) and the GI50 (HCT-15) was greater than 53.6 µM. For the same compound, the GI50 (DMS-114) was > 95.1 µM (inactive), the GI50 (DMS-273) was > 100 µM (inactive) and the GI50 (RXF 393) was 50.2 µM (inactive). For the same compound, the GI50 (EKVX) was > 100 µM (inactive), the GI50 (HOP-18) was > 100 µM (inactive) and the GI50 (SF-295) was > 100 µM (inactive). For the same compound, the GI50 (MOLT-4) was 30.9 µM (inactive), the GI50 (DLD-1) was > 52.2 µM (inactive) and the GI50 (COLO 205) was > 63.7 µM (inactive). For the same compound, the GI50 (U-251) was > 100 µM (inactive), the GI50 (HOP-62) was > 100 µM (inactive) and the GI50 (HOP-92) was > 36.7 µM (inactive). For the same compound, the GI50 (HCT-116) was > 100 µM (inactive), the GI50 (SK-MEL-28) was > 100 µM (inactive) and the GI50 (SN12C) was > 100 µM (inactive). The GI50 (SNB-78) was > 100 µM (inactive), the GI50 (OVCAR-5) was > 100 µM (inactive) and the GI50 (SK-MEL-5) was > 100 µM (inactive). For the same compound, the GI50 (SF-268) was > 100 µM (inactive), the GI50 (SW-620) was > 52.6 µM (inactive) and the GI50 (K562) was 28.9 µM (inactive). The GI50 (HL-60) was 15.3 µM (inactive), the GI50 (M14) was > 75.9 µM (inactive) and the GI50 (KM12) was > 100 µM (inactive). The GI50 (OVCAR-3) was 99.3 µM (inactive), the GI50 (KM-20L2) was > 100 µM (inactive) and the GI50 (M19-MEL) was > 100 µM (inactive). The GI50 (RPMI-8226) was > 54.1 µM (inactive), the GI50 (SNB-75) was > 100 µM (inactive) and the GI50 (OVCAR-4) was > 100 µM (inactive). The GI50 (IGROV-1) was > 100 µM (inactive), the GI50 (UACC-62) was > 100 µM (inactive) and the GI50 (XF498) was > 100 µM (inactive). For the same compound, the GI50 (NCI-H226) was > 100 µM (inactive), the GI50 (SNB-19) was > 100 µM (inactive) and the GI50 (NCI-H23) was > 85.9 µM (inactive). For the same compound, the GI50 (HCC 2998) was > 100 µM (inactive), the GI50 (ACHN) was > 100 µM (inactive) and the GI50 (SR) was 14.7 µM (inactive). For the same compound, the GI50 (LOX IMVI) was > 100 µM (inactive), the GI50 (A498) was > 100 µM (inactive) and the GI50 (A549) was > 100 µM (inactive). For the same compound, the GI50 (HT-29) was > 71 µM (inactive), the GI50 (TK-10) was > 100 µM (inactive) and the GI50 (SF-539) was > 100 µM (inactive). For the same compound, the GI50 (SK-OV-3) was > 100 µM (inactive).
Cc1cc(Br)cc(C)c1NC(=O)C(=O)C(C(=O)c1ccc(Cl)c(Cl)c1)C1OC(=O)c2ccccc21 (stereo not drawn) was tested, and the GI50 (Malme-3M) was > 100 µM (inactive), the GI50 (LXFL 529) was 59.3 µM (inactive) and the GI50 (UACC-257) was 36.7 µM (inactive). The GI50 (NCI-H522) was 36.5 µM (inactive), the GI50 (UO-31) was 26.2 µM (inactive) and the GI50 (NCI-H460) was > 100 µM (inactive). The GI50 (CAKI-1) was 34.8 µM (inactive), the GI50 (SK-MEL-2) was > 100 µM (inactive) and the GI50 (CCRF-CEM) was 35.2 µM (inactive). The GI50 (OVCAR-8) was > 100 µM (inactive), the GI50 (786-0) was 86.1 µM (inactive) and the GI50 (HCT-15) was 50.2 µM. The GI50 (DMS-114) was 24.3 µM (inactive), the GI50 (DMS-273) was 63.2 µM (inactive) and the GI50 (RXF 393) was > 100 µM (inactive). The GI50 (EKVX) was 4.19 µM (inactive), the GI50 (SF-295) was 90.6 µM (inactive) and the GI50 (MOLT-4) was 12.6 µM (inactive). For the same compound, the GI50 (DLD-1) was 12.4 µM (inactive), the GI50 (COLO 205) was 47.5 µM (inactive) and the GI50 (U-251) was 44.6 µM (inactive). The GI50 (HOP-62) was 43.6 µM (inactive), the GI50 (HCT-116) was 48.4 µM (inactive) and the GI50 (SN12C) was 79.3 µM (inactive). For the same compound, the GI50 (SNB-78) was 53.3 µM (inactive), the GI50 (OVCAR-5) was 21.7 µM (inactive) and the GI50 (SF-268) was 39.8 µM (inactive). For the same compound, the GI50 (SW-620) was > 100 µM (inactive), the GI50 (K562) was 28.2 µM (inactive) and the GI50 (HL-60) was 24.5 µM (inactive). For the same compound, the GI50 (M14) was > 100 µM (inactive), the GI50 (KM12) was 36.8 µM (inactive) and the GI50 (OVCAR-3) was 37.1 µM (inactive). The GI50 (KM-20L2) was 34.6 µM (inactive), the GI50 (M19-MEL) was 75.2 µM (inactive) and the GI50 (RPMI-8226) was 42.2 µM (inactive). For the same compound, the GI50 (OVCAR-4) was > 100 µM (inactive), the GI50 (IGROV-1) was 91.2 µM (inactive) and the GI50 (UACC-62) was 59.8 µM (inactive). For the same compound, the GI50 (NCI-H226) was 72.6 µM (inactive), the GI50 (SNB-19) was 82 µM (inactive) and the GI50 (NCI-H23) was 95.7 µM (inactive). The GI50 (HCC 2998) was > 100 µM (inactive), the GI50 (ACHN) was 28.5 µM (inactive) and the GI50 (SR) was 7.71 µM (inactive). The GI50 (LOX IMVI) was > 100 µM (inactive), the GI50 (A498) was 26.3 µM (inactive) and the GI50 (A549) was 74.3 µM (inactive). The GI50 (HT-29) was 29.9 µM (inactive), the GI50 (TK-10) was 70.8 µM (inactive) and the GI50 (SF-539) was 25.2 µM (inactive). For the same compound, the GI50 (RXF 631) was 29.6 µM (inactive) and the GI50 (SK-OV-3) was 49.5 µM (inactive).

From ChEMBL document CHEMBL1201862, “PubChem BioAssay data set” (2004)
